# Where “and” joins values, the source holds several entries; their conditions need not be identical. Identical values can stand only once. Like-named read-outs stand apart in the source and are kept apart here.
# Columns and labels:
# human CB2 receptors = target: T1, human CB2 receptors (Homo sapiens, UniProt P34972); assay: Cannabinoid receptor [3H]CP-55,940 displacement binding assay, CB2
# T1 construct: expressed in transfected cells; host or cells: CHO cells
# Method: (§1) The affinities of the compounds for CB1 and CB2 receptors were examined using displacement assays, as previously described. Briefly, cell membranes from CHO cells expressing human CB1 or human CB2 receptors were isolated using differential centrifugation. Test compounds reconstituted in DMSO and were incubated with the isolated membrane in binding buffer (50 mM Tris-HCl, 1 mM EDTA, 3 mM MgCl2, 5 mg/mL BSA, pH 7.4) along with 2.5 nM [^3H]CP-55,940. Total binding was assessed in the presence of equal concentration of DMSO, while non-specific binding was determined in the presence of 10 μM CP-55,940, and background binding was determined in wells lacking membrane. Following incubation at 30 °C for 60 min, the binding reactions were terminated by vacuum filtration through Whatman GF/C filters. The filters were then washed twice with ice-cold buffer (50 mM Tris-HCl, 1 mg/mL BSA). Liquid scintillation cocktail was added to each well and the total tritiated counts per minute were analyzed using a TopCount scintillation counter. Background counts were subtracted from all wells and the percent displacement from total binding was calculated.
# (§2) The compounds were initially screened at 10 μM concentrations. If they produced at least ±30% displacement of the radioligand, then full competition curves were constructed. Ki values were calculated using GraphPad Prism (San Diego, CA, USA) and Kd values determined using a 1 site fit. All assays were run in technical and biological replicates so that the n = 5–6.
# human CB1 receptors = target: T2, human CB1 receptors (Homo sapiens, UniProt P21554); assay: Cannabinoid receptor [3H]CP-55,940 displacement binding assay, CB1; details: 1 h; 10 µM compound; CHO cell membranes, 2.5 nM radioligand; read-out: Displacement of [3H]CP-55,940 from CB1
# T2 construct: expressed in transfected cells; host or cells: CHO cells
# T2 sequence (P21554 whole entry): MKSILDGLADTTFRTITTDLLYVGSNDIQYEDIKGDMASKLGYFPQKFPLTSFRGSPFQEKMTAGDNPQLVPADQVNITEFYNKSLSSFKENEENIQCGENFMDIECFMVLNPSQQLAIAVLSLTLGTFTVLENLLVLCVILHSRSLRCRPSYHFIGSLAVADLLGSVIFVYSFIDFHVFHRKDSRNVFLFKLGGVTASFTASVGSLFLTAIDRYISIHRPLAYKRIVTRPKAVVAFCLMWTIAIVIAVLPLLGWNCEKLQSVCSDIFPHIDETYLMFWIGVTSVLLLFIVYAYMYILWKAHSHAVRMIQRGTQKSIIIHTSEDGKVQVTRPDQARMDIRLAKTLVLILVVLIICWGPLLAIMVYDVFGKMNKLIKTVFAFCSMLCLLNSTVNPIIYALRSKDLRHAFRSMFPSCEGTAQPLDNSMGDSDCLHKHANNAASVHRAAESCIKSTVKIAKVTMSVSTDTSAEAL
# Method: as §1, §2
# [1] = PK evaluation in CD-1 mice (plasma, brain, kidney, liver; i.v. and oral); assay type: in vivo; details: for bioavailability: oral vs intravenous 5 mg/kg
# Method: The primary stock solutions of 4k and phenacetin (internal standard, IS) were prepared in methanol at a concentration of 1.0 mg/mL. Working solutions of calibration standards and quality control (QC) samples were prepared by dilution with methanol and stored at −20 °C. A working stock of the IS solution (20 ng/mL) was prepared in methanol and stored at −20 °C.
# Chromatography was performed on an Acquity^TM UPLC system (Waters Corp, Milford, MA, USA) with an autosampler temperature at 10 °C. Waters Acquity UPLC® HSS C18 column (3.0 × 50 mm, 1.8 µm particle size) was used for chromatographic separation with linear gradient elution consisting of (A) 90% acetonitrile and (B) 10% 0.2% formic acid in Milli-Q water as mobile phases. The flow rate was set at 0.30 mL/min, and the injection volume was 2 µL.
# An Acquity Tandem Quadrupole Mass Detector (Xevo TQ-S; Waters Corp, Milford, MA, USA) in positive electrospray ionization mode was used for mass spectrometric detection. For collision-induced dissociation, argon was used as collision gas. The cone voltage and collision energy were set at 60 V and 34 V for 4k and 46 V and 26 V for the IS, respectively. Quantification was performed using the monitoring of multiple reaction monitoring (MRM) of following transitions: m/z 409.0/220.9 for 4k and m/z 180.0/92.7 for IS. Retention times of 4k and IS were 2.85 and 1.81 min, respectively.
# A simple protein precipitation method was followed for extraction of 4k from mice plasma. To an aliquot of 50 μL of plasma or tissue (brain, liver, or kidney) samples, IS solution (5 μL of 20 ng/mL) was added and mixed for 15 s on a cyclomixer (Thermo Scientific, Indianapolis, IN, USA). After precipitation with 200 μL of acetonitrile, the mixture was vortexed for 2 min, followed by centrifugation for 10 min at 14,000 rpm on an accuSpin Micro 17R (Fisher Scientific, Suwanee, GA, USA) at 5 °C. An aliquot of ~150 μL of clear supernatant was transferred into vials and 2 μL was injected onto LC-MS/MS system for analysis.
# Male CD-1 mice (N = 48) were obtained from Envigo (St. Louis, MO, USA) and maintained on a 12:12 h reversed dark/light cycle (lights off at 07:00 h) with ad libitum access to food and water. Following a ~4 h fast, animals were randomly assigned to one of two groups. Group I and II animals (n = 24/group, weight range 25–30 g) received compound 4k (5 mg/kg) orally (in the form of a solution, prepared using 10% absolute alcohol, 10% cremophor, and 80% Milli-Q water) or intravenously (i.v., using solution formulation comprising 10% absolute alcohol, 10% cremophor, and 80% normal saline), respectively. At 0.5, 1, 2, 4, 8, and 24 h post administration, animals were euthanized, blood was collected in K2. EDTA-containing polypropylene tubes and, tissues were collected (brain, liver, and kidney). Plasma was harvested by centrifuging the blood using Eppendorf 5430R Centrifuge (Germany) at 5000 rpm for 5 min and stored frozen at −80 °C until analysis.
# Brain, liver, and kidney tissues were homogenized in separate 15 mL round-bottom screw-capped vials in phosphate buffered saline (5 volumes of each tissue mass) with a homogenizer (Polytron®) and stored at −80 °C until analysis. Plasma or tissue homogenates (50 μL) were spiked with IS and processed as mentioned in sample preparation section.
# Plasma and tissue concentration and time data of compound 4k were analyzed by a non-compartmental method using WinNonlin Version 5.3 (Pharsight Corporation, Mountain View, CA, USA).
# [2] = male, CD-1, mouse, intravenous 5 mg/kg, plasma
# [3] = male, CD-1, mouse, oral 5 mg/kg, plasma
# T1 sequence (P34972 whole entry): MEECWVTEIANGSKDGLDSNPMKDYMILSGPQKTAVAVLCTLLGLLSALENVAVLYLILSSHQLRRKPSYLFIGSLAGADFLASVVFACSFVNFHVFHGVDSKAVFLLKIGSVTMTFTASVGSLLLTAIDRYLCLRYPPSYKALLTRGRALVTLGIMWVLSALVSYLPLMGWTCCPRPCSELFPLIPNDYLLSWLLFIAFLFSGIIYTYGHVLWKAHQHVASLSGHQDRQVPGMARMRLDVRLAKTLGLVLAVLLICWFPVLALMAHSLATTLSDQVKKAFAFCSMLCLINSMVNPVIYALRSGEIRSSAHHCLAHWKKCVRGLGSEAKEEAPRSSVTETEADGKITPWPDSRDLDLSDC
structure (smiles),measurement,setting,value
O=C1c2ccc(Cl)cc2N/C(=N/N=C/c2cc3ccccc3s2)[C@@H]2CCCN12 [Compound 4k],inhibition at 10 µM,"human CB2 receptors; 1 h, 10 µM compound, CHO cell membranes, 2.5 nM radioligand, read-out: Displacement of [3H]CP-55,940 from CB2",84.6%
same,Ki,"human CB2 receptors; CB2, full competition curves vs [3H]CP-55,940",146 nM
same,inhibition at 10 µM,human CB1 receptors,41.3%
same,AUC0–∞,"[1]; intravenous 5 mg/kg, brain",5685 ng·h/g
same,t1/2,"[1]; intravenous 5 mg/kg, brain, 5 mg/kg",6.54 h
same,AUC0–∞,"[1]; intravenous 5 mg/kg, kidney",13272 ng·h/g
same,AUC0–∞,"[1]; intravenous 5 mg/kg, liver",19991 ng·h/g
same,t1/2,"[1]; intravenous 5 mg/kg, liver, 5 mg/kg",9.26 h
same,clearance as share of hepatic blood flow in mice,"[1]; intravenous 5 mg/kg, plasma",26%
same,t1/2,"[1]; intravenous 5 mg/kg, plasma, 5 mg/kg",6.91 h
same,Kp,"[1]; male, CD-1, mouse, brain and plasma, intravenous 5 mg/kg, read-out: mean brain to plasma ratio",3.67
same,Kp,"[1]; male, CD-1, mouse, brain and plasma, oral 5 mg/kg, read-out: mean brain to plasma ratio",4.61
same,half-life,"[1]; male, CD-1, mouse, brain, iv, 5 mg/kg, intravenous 5 mg/kg, brain, read-out: t1/2 (converted)",6.5 h
same,half-life,"[1]; male, CD-1, mouse, brain, po, 5 mg/kg, oral 5 mg/kg, brain, read-out: t1/2 (converted)",22.9 h
same,Kp,"[1]; male, CD-1, mouse, kidney and plasma, intravenous 5 mg/kg, read-out: mean kidney to plasma ratio",14.5
same,Kp,"[1]; male, CD-1, mouse, kidney and plasma, oral 5 mg/kg, read-out: mean kidney to plasma ratio",7.25
same,half-life,"[1]; male, CD-1, mouse, kidney, iv, 5 mg/kg, intravenous 5 mg/kg, kidney, read-out: t1/2 (converted)",10.2 h
same,half-life,"[1]; male, CD-1, mouse, kidney, po, 5 mg/kg, oral 5 mg/kg, kidney, read-out: t1/2 (converted)",16.7 h
same,Kp,"[1]; male, CD-1, mouse, liver and plasma, intravenous 5 mg/kg, read-out: mean liver to plasma ratio",11.5
same,Kp,"[1]; male, CD-1, mouse, liver and plasma, oral 5 mg/kg, read-out: mean liver to plasma ratio",9.89
same,half-life,"[1]; male, CD-1, mouse, liver, iv, 5 mg/kg, intravenous 5 mg/kg, liver, read-out: t1/2 (converted)",9.3 h
same,half-life,"[1]; male, CD-1, mouse, liver, kidney, other: oral or intravenous, 5 mg/kg, oral or intravenous route, liver and kidneys, read-out: elimination half-lives in the liver and kidneys",9.3 to 16.7 h
same,half-life,"[1]; male, CD-1, mouse, liver, po, 5 mg/kg, oral 5 mg/kg, liver, read-out: t1/2 (converted)",13 h
same,half-life,"[1]; male, CD-1, mouse, plasma, iv, 5 mg/kg, intravenous 5 mg/kg, plasma, read-out: t1/2 (converted)",6.9 h
same,half-life,"[1]; male, CD-1, mouse, plasma, po, 5 mg/kg, oral 5 mg/kg, plasma, read-out: t1/2 (converted)",16.4 h
same,Cmax,"[1]; male, CD-1, mouse, intravenous 5 mg/kg, brain, read-out: Cmax or C0",2260 ng/g
same,Vd,"[1]; male, CD-1, mouse, intravenous 5 mg/kg, brain, read-out: volume of distribution",8.82 ± 2.43 L/kg
same,Cmax,"[1]; male, CD-1, mouse, intravenous 5 mg/kg, kidney, read-out: Cmax or C0",4720 ng/g
same,Vd,"[1]; male, CD-1, mouse, intravenous 5 mg/kg, kidney, read-out: volume of distribution",5.63 ± 0.37 L/kg
same,Cmax,"[1]; male, CD-1, mouse, intravenous 5 mg/kg, liver, read-out: Cmax or C0",13500 ng/g
same,Vd,"[1]; male, CD-1, mouse, intravenous 5 mg/kg, liver, read-out: volume of distribution",3.38 ± 0.18 L/kg
same,AUC(0-inf),[1]; [2],4020 ng·h/mL
same,clearance,[1]; [2],23.5 mL/min/kg
same,C0,"[1]; male, CD-1, mouse, intravenous 5 mg/kg, plasma, read-out: Cmax or C0",4340 ng/mL
same,Vd,"[1]; male, CD-1, mouse, intravenous 5 mg/kg, plasma, read-out: Vd",14.3 L/kg
same,Tmax,"[1]; male, CD-1, mouse, oral 5 mg/kg, brain",1.25 h
same,Cmax,"[1]; male, CD-1, mouse, oral 5 mg/kg, brain, read-out: Cmax",602 ng/g
same,Tmax,"[1]; male, CD-1, mouse, oral 5 mg/kg, kidney",0.75 h
same,Cmax,"[1]; male, CD-1, mouse, oral 5 mg/kg, kidney, read-out: Cmax",795 ng/g
same,Tmax,"[1]; male, CD-1, mouse, oral 5 mg/kg, liver",0.75 h
same,Cmax,"[1]; male, CD-1, mouse, oral 5 mg/kg, liver, read-out: Cmax",1890 ng/g
same,AUC(0-inf),[1]; [3],739 ng·h/mL
same,Tmax,[1]; [3],0.88 h
same,Cmax,"[1]; male, CD-1, mouse, oral 5 mg/kg, plasma, read-out: Cmax",198 ng/mL
same,bioavailability,"[1]; male, CD-1, mouse, brain, read-out: F (apparent oral bioavailability)",42.5 ± 5.75%
same,bioavailability,"[1]; male, CD-1, mouse, plasma, read-out: F (oral bioavailability)",18%
same,AUC0–∞,"[1]; oral 5 mg/kg, brain, 5 mg/kg",3069 ± 64 ng·h/g and 3069 ng·h/g
same,AUC0–∞,"[1]; oral 5 mg/kg, kidney, 5 mg/kg",5223 ± 44.75 ng·h/g and 5223 ng·h/g
same,AUC0–∞,"[1]; oral 5 mg/kg, liver, 5 mg/kg",6423 ± 571 ng·h/g and 6423 ng·h/g

# — paper PMC8778670, “Identification of an Orally Bioavailable, Brain-Penetrant Compound with Selectivity for the Cannabinoid Type 2 Receptor” (Molecules, 2022)
